Assay results reported in the NIST ThermoML archive (doi:10.1016/j.tca.2011.06.020).

What was measured:
[1] = xn = mol fraction of the nth substance listed; conditions: 101 kPa, Liquid; for speed of sound: Sing-around technique in a fixed-path interferometer; for mass density: Vibrating tube method
[2] = excess molar enthalpy (molar enthalpy of mixing); xn = mol fraction of the nth substance listed; conditions: 308.15 K, 101 kPa, Liquid, Drop calorimetry

Cc1ccccc1N [2-methylaniline] + CNC=O
[1]
Conditions	mass density, 298.15 K [kg/m3]	mass density, 303.15 K [kg/m3]	mass density, 308.15 K [kg/m3]	speed of sound, 298.15 K [m/s]	speed of sound, 303.15 K [m/s]	speed of sound, 308.15 K [m/s]
x1 = 0.0656	1000.18	995.882	991.55	1454.3	1438.4	1423.3
x1 = 0.1258	1000.98	996.704	992.418	1472.4	1456.3	1440.9
x1 = 0.1673	1001.39	997.124	992.87	1484.1	1467.8	1452.2
x1 = 0.2127	1001.71	997.464	993.254	1496	1479.7	1463.8
x1 = 0.2466	1001.88	997.65	993.459	1504.4	1488.2	1471.9
x1 = 0.2789	1001.99	997.753	993.588	1512.1	1495.7	1479.4
x1 = 0.3081	1002.03	997.811	993.675	1518.6	1502.3	1485.7
x1 = 0.3356	1002.04	997.839	993.709	1524.4	1508.2	1491.4
x1 = 0.3898	1001.96	997.768	993.664	1535.2	1518.9	1501.9
x1 = 0.4383	1001.79	997.624	993.525	1544	1527.6	1510.4
x1 = 0.4802	1001.56	997.416	993.334	1551.1	1534.6	1517.2
x1 = 0.5269	1001.25	997.104	993.02	1558.2	1541.5	1524.1
x1 = 0.5599	1000.97	996.843	992.76	1562.9	1545.9	1528.5
x1 = 0.6006	1000.59	996.484	992.392	1568.2	1551.1	1533.6
x1 = 0.6519	1000.02	995.935	991.837	1574.4	1556.7	1539.2
x1 = 0.7244	999.105	995.043	990.907	1582.2	1563.4	1546
x1 = 0.7904	998.148	994.083	989.937	1588.2	1568.3	1550.9
x1 = 0.8485	997.204	993.14	988.977	1592.8	1571.9	1554.2
x1 = 1	994.351	990.224	986.069	1602.6	1577.8	1558.4

[2]
Conditions	excess molar enthalpy [kcal/mol]
x1 = 0.0486	-0.0402
x1 = 0.0972	-0.0749
x1 = 0.1358	-0.101
x1 = 0.1888	-0.126
x1 = 0.2267	-0.145
x1 = 0.2786	-0.16
x1 = 0.3432	-0.175
x1 = 0.3972	-0.182
x1 = 0.4209	-0.183
x1 = 0.4811	-0.181
x1 = 0.5306	-0.175
x1 = 0.5822	-0.162
x1 = 0.6225	-0.153
x1 = 0.6788	-0.138
x1 = 0.7121	-0.124
x1 = 0.7826	-0.0967
x1 = 0.8127	-0.0858
x1 = 0.8455	-0.0712
